In ChEMBL document CHEMBL1122436, “Structure-activity studies of dermorphin. Synthesis and some pharmacological data of dermorphin and its 1-substituted analogues” (J Med Chem, 1983):

Experiments:
Assay type in all cases: functional
[1] = species on record: Mus musculus; test: Analgesic activity in mice by using hot plate method
[2] = species on record: Cavia porcellus; test: Inhibition of twitches in guinea pig ileum
[3] = species on record: Cavia porcellus; test: Inhibition of electrically evoked twitches in guinea pig ileum relative to morphine.

SMILES	ED50 [1] [M/kg]	IC50 [2] [nM]	Relative potency [3]
CN1CC[C@]23c4c5ccc(O)c4O[C@H]2[C@@H](O)C=C[C@H]3[C@H]1C5 [MORPHINE]	1.7e-06	–	–
C[C@@H](NC(=O)[C@@H](N)Cc1ccc(O)cc1)C(=O)N[C@@H](Cc1ccccc1)C(=O)NCC(=O)N[C@@H](Cc1ccc(O)cc1)C(=O)N1CCC[C@H]1C(=O)N[C@@H](CO)C(N)=O [DERMORPHIN]	9.5e-07	0.052	1440
CSCC[C@H](NC(=O)[C@H](Cc1ccccc1)NC(=O)CNC(=O)[C@@H](C)NC(=O)[C@@H](N)Cc1ccc(O)cc1)C(N)=O	–	2.5	30
C[C@H](N)C(=O)N[C@H](C)C(=O)N[C@@H](Cc1ccccc1)C(=O)NCC(=O)N[C@@H](Cc1ccc(O)cc1)C(=O)N1CCC[C@H]1C(=O)N[C@@H](CO)C(N)=O	6.1e-05	–	0.0017
C[C@@H](NC(=O)[C@@H](N)Cc1ccccc1)C(=O)N[C@@H](Cc1ccccc1)C(=O)NCC(=O)N[C@@H](Cc1ccc(O)cc1)C(=O)N1CCC[C@H]1C(=O)N[C@@H](CO)C(N)=O	1.55e-05	–	0.026
CC(=O)N[C@@H](Cc1ccc(O)cc1)C(=O)N[C@H](C)C(=O)N[C@@H](Cc1ccccc1)C(=O)NCC(=O)N[C@@H](Cc1ccc(O)cc1)C(=O)N1CCC[C@H]1C(=O)N[C@@H](CO)C(N)=O	>0.001	–	0.0044
C[C@@H](NC(=O)[C@H](N)Cc1ccccc1)C(=O)N[C@@H](Cc1ccccc1)C(=O)NCC(=O)N[C@@H](Cc1ccc(O)cc1)C(=O)N1CCC[C@H]1C(=O)N[C@@H](CO)C(N)=O	>0.001	–	0.0042
COc1ccc(C[C@H](N)C(=O)N[C@H](C)C(=O)N[C@@H](Cc2ccccc2)C(=O)NCC(=O)N[C@@H](Cc2ccc(O)cc2)C(=O)N2CCC[C@H]2C(=O)N[C@@H](CO)C(N)=O)cc1	6e-05	–	40.5
